SMILES strings stand for the structures.

Data set [1] addresses Transporter, Norepinephrine (NET) (Homo sapiens, UniProt P23975). Nature of the data set: NET radioligand binding ([125I] RTI-55), Eurofins. The settings on record: for inhibition at 0.01 µM: read-out: NET, % inhibition, 10 nM compound; for inhibition at 0.1 µM: read-out: NET, % inhibition, 100 nM compound.
Procedure: Source: Human recombinant MDCK cells;
Incubation Time/Temp: 3 hours @ 4° C.;
(§2) Incubation Buffer: 50 mM Tris-HCl, pH 7.4, 100 mM NaCl, 1 μM Leupeptin, 10 μM PMSF;
Non-Specific Ligand: 10.0 μM Desipramine;
(§3) Quantitation Method: Radioligand Binding;
In data set [2] the target is Transporter, Dopamine (DAT) (Homo sapiens, UniProt Q01959). As to the kind of experiment: DAT radioligand binding ([125I] RTI-55), Eurofins. The settings on record: read-out: DAT, % inhibition, 100 nM compound.
Chain of Transporter, Dopamine (DAT) (Q01959 whole entry): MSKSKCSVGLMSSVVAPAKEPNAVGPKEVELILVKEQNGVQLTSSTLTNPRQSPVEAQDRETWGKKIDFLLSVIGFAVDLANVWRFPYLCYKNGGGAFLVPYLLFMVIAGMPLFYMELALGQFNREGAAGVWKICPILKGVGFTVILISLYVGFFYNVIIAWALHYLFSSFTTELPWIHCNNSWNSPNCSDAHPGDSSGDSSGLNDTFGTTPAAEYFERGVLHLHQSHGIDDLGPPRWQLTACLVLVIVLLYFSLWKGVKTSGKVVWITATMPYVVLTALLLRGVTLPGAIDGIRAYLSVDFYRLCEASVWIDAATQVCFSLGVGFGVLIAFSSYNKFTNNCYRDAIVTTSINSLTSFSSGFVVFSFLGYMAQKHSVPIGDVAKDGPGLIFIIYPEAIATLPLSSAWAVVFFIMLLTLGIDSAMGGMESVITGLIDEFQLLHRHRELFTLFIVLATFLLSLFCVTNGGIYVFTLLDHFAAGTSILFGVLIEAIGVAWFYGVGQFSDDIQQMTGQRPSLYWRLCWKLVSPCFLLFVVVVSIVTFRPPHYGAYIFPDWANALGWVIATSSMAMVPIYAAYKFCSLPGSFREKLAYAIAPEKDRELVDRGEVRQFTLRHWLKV
Procedure: Source: Human recombinant CHO—S cells;
Incubation Time/Temp: 3 hours @ 4° C.;
as §2
Non-Specific Ligand: 10.0 μM Nomifensine;
Specific Binding: 90% (Historical Values);
as §3
For a further data set, the target named is MCHR1 (Homo sapiens, UniProt Q99705). As to the kind of experiment: Contribution of N-acetyl metabolite to MCHR1 antagonism. The source says:
(§1) By substituting the hydrogens with deuterium on the carbon(s) adjacent to the nitrogen which is acetylated (see for example, Examples 5 to 7), acetylation process can be slowed down to reduce the formation of this metabolite.

The nature of data set [3]: Metabolite level of Formula II in phase I clinical trial. It counts as in vivo, human. The note with it: healthy volunteers.
From the text: as §1

The next data set has as its target T1, DAT (Homo sapiens, UniProt Q01959).
T1 construct: host or cells: living brain (PET)
The note with it: approved monoamine reuptake inhibitors at efficacious doses, cited from earlier work.

The target of the next data set is NET (Homo sapiens, UniProt P23975). The note with it: at efficacious doses; cited from earlier work.
Chain of NET (P23975 whole entry): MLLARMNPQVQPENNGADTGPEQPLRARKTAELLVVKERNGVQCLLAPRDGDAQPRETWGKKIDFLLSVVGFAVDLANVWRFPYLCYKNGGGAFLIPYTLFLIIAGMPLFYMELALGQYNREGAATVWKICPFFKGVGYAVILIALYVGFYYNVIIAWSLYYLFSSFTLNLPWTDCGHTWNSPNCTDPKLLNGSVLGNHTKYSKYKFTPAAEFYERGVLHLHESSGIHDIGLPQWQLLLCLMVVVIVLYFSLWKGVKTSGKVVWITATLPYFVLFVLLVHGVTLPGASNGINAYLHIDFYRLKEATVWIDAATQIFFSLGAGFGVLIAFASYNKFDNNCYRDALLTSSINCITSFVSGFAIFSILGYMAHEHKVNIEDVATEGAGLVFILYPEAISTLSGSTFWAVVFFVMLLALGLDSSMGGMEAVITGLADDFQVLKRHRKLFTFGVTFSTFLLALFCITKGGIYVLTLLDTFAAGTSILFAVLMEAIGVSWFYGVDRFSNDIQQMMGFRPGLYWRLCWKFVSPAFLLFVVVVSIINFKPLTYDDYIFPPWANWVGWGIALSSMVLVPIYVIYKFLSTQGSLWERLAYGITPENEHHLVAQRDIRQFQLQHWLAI
Another data set relates to PWS patients. The note with it: standard mg/day dosing, cited from earlier work.

Chain of Transporter, Norepinephrine (NET) (P23975 whole entry): as above
T1 sequence (Q01959 whole entry): as the sequence (Q01959 whole entry) above
Chain of MCHR1 (Q99705 whole entry, species assumed): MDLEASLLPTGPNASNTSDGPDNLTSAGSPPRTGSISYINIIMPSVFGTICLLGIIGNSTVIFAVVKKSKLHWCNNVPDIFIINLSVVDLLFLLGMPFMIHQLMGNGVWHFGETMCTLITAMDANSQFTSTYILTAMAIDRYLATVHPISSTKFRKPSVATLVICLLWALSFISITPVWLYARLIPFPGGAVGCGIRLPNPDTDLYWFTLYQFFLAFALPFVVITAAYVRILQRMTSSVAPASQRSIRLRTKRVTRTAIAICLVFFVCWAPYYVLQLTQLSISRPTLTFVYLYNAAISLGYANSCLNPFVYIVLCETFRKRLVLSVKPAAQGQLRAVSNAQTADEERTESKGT

The term inhibition denotes the relative decrease from the control value, in per cent. Regarding `[2H]C1([2H])NC([2H])([2H])C([2H])(c2ccc(Cl)c(Cl)c2)c2ccc(-c3ccc4ncnn4c3)cc21` (single isomer, unassigned) [Compound 8A, 7-([1,2,4]triazolo[1,5-a]pyridin-6-yl)-4-(3,4-dichlorophenyl)-1,2,3,4-tetrahydroisoquinoline-1,1,3,3,4-d5], in data set [1], the inhibition at 0.01 µM was found to be 29% and the inhibition at 0.1 µM turned out to be 86%. The inhibition at 0.1 µM in data set [2] was 93%.
For the compound `[2H]C1([2H])NCC(c2ccc(Cl)c(Cl)c2)c2ccc(-c3ccc4ncnn4c3)cc21` (single isomer, unassigned) [Compound 12A, 7-([1,2,4]triazolo[1,5-a]pyridin-6-yl)-4-(3,4-dichlorophenyl)-1,2,3,4-tetrahydroisoquinoline-1,1-d2], in data set [1], the inhibition at 0.01 µM came out at 34% and the inhibition at 0.1 µM came to 79%.
With `[2H]C1([2H])NCc2cc(-c3ccc4ncnn4c3)ccc2C1([2H])c1ccc(Cl)c(Cl)c1` (single isomer, unassigned) [Compound 16B, 7-([1,2,4]triazolo[1,5-a]pyridin-6-yl)-4-(3,4-dichlorophenyl)-1,2,3,4-tetrahydroisoquinoline-3,3,4-d3], in data set [1], the inhibition at 0.01 µM amounted to 49% and the inhibition at 0.1 µM worked out at 72%. Also, the inhibition at 0.1 µM in data set [2] was found to be 76%.
Consider `CC(=O)N1CCc2c(c3ccc(-n4ccc(OCc5ccc(F)cn5)cc4=O)cc3n2C)C1` [1-(2-acetyl-5-methyl-2,3,4,5-tetrahydro-1H-pyrido[4,3-b]indol-7-yl)-4-((5-fluoropyridin-2-yl)methoxy)pyridin-2(1H)-one], for which, at MCHR1, the “contribution to the pharmacology of MCHR1 antagonism” value is recorded as “does not contribute to the pharmacology of MCHR1 antagonism”. The “amount of metabolite comparing to parent compound Formula II” value in data set [3] was “very significant”.
As to `CC(NC(C)(C)C)C(=O)c1cccc(Cl)c1` (stereo not shown) [Bupropion, bupropion], the “Lowest Occupancy DAT” value at DAT (lowest reported) is on record as 14% (Bupropion).
Regarding `COC(=O)C(c1ccccc1)C1CCCCN1` (stereo not shown) [Methylphenidate, methylphenidate], at DAT (highest reported), the “Highest Occupancy DAT” value is listed as 74%.
Consider `COc1ccc(C(CN(C)C)C2(O)CCCCC2)cc1` (stereo not shown) [Venlafaxine, venlafaxine], for which the NET occupancy on NET is recorded as 8-61%.
In the case of `CCOC[C@@H]1[C@@H](c2ccc(Cl)c(Cl)c2)C[C@@H]2CC[C@H]1N2C` [tesofensine], in the data set with PWS patients (PWS patients), the “hyperphagia in patients with the appropriate plasma drug level” value is reported as “hyperphagia controlled completely” and the “patients with plasma drug levels exceeding the safety levels who discontinued the treatment due to adverse events” value is 2/3. In addition, the “efficacy after lowering the dosing for all patients” value in the data set with PWS patients (lowered dose) is reported as “no efficacy”.

The values are drawn from patent US20230002377A1, “THERAPEUTIC COMBINATIONS OF DRUGS AND METHODS OF USING THEM” (HARMONY BIOSCIENCES, LLC, priority 2020, published 2023).
